In one assay the target is T1, Adrenergic β2 (Homo sapiens, UniProt P07550).
T1 construct: Adherent H292 cells were removed from tissue culture flasks; endogenous in cells; host or cells: H292 cells
The assay can be described thus: Adrenergic β2 mediated cAMP production in H292 cells (AlphaScreen cAMP detection). The class given is cell-based. On the set-up: key to β2 Int Act: fraction of formoterol maximum activity (formoterol = 1). As to conditions: for β2 Int Act: Intrinsic Activity as a fraction relative to the maximum activity determined for formoterol; for EC50: cAMP production, 60 minutes at room temperature, 300 μM rolipram, read-out: β2 pEC50 (converted). Here is the method:
Adrenergic β2 Mediated cAMP Production
H292 cells were grown in 225 cm2 flasks incubator at 37° C., 5% CO2 in RPMI medium containing, 10% (v/v) FBS (foetal bovine serum) and 2 mM L-glutamine.
Adherent H292 cells were removed from tissue culture flasks by treatment with Accutase™ cell detachment solution for 15 minutes. Flasks were incubated for 15 minutes in a humidified incubator at 37° C., 5% CO2. Detached cells were re-suspended in RPMI media (containing 10% (v/v) FBS and 2 mM L-glutamine) at 1×10^6 cells per mL. 10000 cells in 100 μL were added to each well of a tissue-culture-treated 96-well plate and the cells incubated overnight in a humidified incubator at 37° C., 5% CO2. The culture media was removed and cells were washed twice with 100 μL assay buffer and replaced with 50 μL assay buffer (HBSS solution containing 10 mM HEPES pH7.4 and 5 mM glucose). Cells were rested at room temperature for 20 minutes after which time 25 μL of rolipram (1.2 mM made up in assay buffer containing 2.4% (v/v) dimethylsulphoxide) was added. Cells were incubated with rolipram for 10 minutes after which time test compounds were added and the cells were incubated for 60 minutes at room temperature. The final rolipram concentration in the assay was 300 μM and final vehicle concentration was 1.6% (v/v) dimethylsulphoxide. The reaction was stopped by removing supernatants, washing once with 100 μL assay buffer and replacing with 50 μL lysis buffer. The cell monolayer was frozen at −80° C. for 30 minutes (or overnight).
AlphaScreen™ cAMP Detection
The concentration of cAMP (cyclic adenosine monophosphate) in the cell lysate was determined using AlphaScreen™ methodology. The frozen cell plate was thawed for 20 minutes on a plate shaker then 10 μL of the cell lysate was transferred to a 96-well white plate. 40 μL of mixed AlphaScreen™ detection beads pre-incubated with biotinylated cAMP, was added to each well and the plate incubated at room temperature for 10 hours in the dark. The AlphaScreen™ signal was measured using an EnVision spectrophotometer (Perkin-Elmer Inc.) with the recommended manufacturer's settings. cAMP concentrations were determined by reference to a calibration curve determined in the same experiment using standard cAMP concentrations. Concentration response curves for agonists were constructed and data was fitted to a four parameter logistic equation to determine both the pEC50 and Intrinsic Activity. Intrinsic Activity was expressed as a fraction relative to the maximum activity determined for formoterol in each experiment.

Assay [1] deals with T2, recombinant human Dopamine Subtype D2s receptors (Homo sapiens, UniProt P14416).
T2 construct: purchased Perkin Elmer
T2 sequence (P14416 1-414 isoform P14416-2): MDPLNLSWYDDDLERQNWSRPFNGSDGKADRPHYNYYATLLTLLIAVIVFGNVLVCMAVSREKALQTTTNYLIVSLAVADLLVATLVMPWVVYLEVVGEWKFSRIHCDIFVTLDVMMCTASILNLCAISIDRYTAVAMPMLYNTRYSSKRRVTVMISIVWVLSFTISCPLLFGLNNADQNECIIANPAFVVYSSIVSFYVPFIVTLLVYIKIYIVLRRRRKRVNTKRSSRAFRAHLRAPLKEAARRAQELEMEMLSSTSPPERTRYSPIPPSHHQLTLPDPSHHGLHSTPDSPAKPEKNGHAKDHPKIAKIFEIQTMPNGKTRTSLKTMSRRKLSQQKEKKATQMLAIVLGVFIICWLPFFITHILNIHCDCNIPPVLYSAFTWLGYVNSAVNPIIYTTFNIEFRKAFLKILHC
The assay can be described thus: Dopamine D2 selectivity assay, [3H]-spiperone binding to membranes. The following applies: inhibition of [3H]-spiperone binding, read-out: D2 bind pIC50 (converted). As to the method:
Membranes containing recombinant human Dopamine Subtype D2s receptors were obtained from Perkin Elmer. These were diluted in Assay Buffer (50 mM HEPES, 1 mM EDTA, 120 mM NaCl, 0.1% gelatin, pH 7.4) to provide a final concentration of membranes that gave a clear window between maximum and minimum specific binding.
Assays were performed in U-bottomed 96-well polypropylene plates. 30 μL [^3H]-spiperone (0.16 nM final concentration) and 30 μL of test compound (10× final concentration) were added to each test well. For each assay plate 8 replicates were obtained for [^3H]-spiperone binding in the presence of 30 μL vehicle (10% (v/v) DMSO in Assay Buffer; defining maximum binding) or 30 μL Haloperidol (10 μM final concentration; defining non-specific binding (NSB)). Membranes were then added to achieve a final volume of 300 μL. The plates were incubated for 2 hours at room temperature and then filtered onto PEI coated GF/B filter plates, pre-soaked for 1 hour in Assay Buffer, using a 96-well plate Tomtec cell harvester. Five washes with 250 μL wash buffer (50 mM HEPES, 1 mM EDTA, 120 mM NaCl, pH 7.4) were performed at 4° C. to remove unbound radioactivity. The plates were dried then sealed from underneath using Packard plate sealers and MicroScint-0 (50 μL) was added to each well. The plates were sealed (TopSeal A) and filter-bound radioactivity was measured with a scintillation counter (TopCount, Packard BioScience) using a 3-minute counting protocol.
Total specific binding (B0) was determined by subtracting the mean NSB from the mean maximum binding. NSB values were also subtracted from values from all other wells. […] Data was fitted to a four parameter logistic equation to determine the compound potency, which was expressed as pIC50 (negative log molar concentration inducing 50% inhibition of [^3H]-spiperone binding).

The target in assay [2] is T3, recombinant human α1D receptor (Homo sapiens, UniProt P25100).
T3 construct: expressed in transfected cells; host or cells: human embryonic kidney 293 cells (HEK93 [sic]), membranes
T3 sequence (P25100 1-572): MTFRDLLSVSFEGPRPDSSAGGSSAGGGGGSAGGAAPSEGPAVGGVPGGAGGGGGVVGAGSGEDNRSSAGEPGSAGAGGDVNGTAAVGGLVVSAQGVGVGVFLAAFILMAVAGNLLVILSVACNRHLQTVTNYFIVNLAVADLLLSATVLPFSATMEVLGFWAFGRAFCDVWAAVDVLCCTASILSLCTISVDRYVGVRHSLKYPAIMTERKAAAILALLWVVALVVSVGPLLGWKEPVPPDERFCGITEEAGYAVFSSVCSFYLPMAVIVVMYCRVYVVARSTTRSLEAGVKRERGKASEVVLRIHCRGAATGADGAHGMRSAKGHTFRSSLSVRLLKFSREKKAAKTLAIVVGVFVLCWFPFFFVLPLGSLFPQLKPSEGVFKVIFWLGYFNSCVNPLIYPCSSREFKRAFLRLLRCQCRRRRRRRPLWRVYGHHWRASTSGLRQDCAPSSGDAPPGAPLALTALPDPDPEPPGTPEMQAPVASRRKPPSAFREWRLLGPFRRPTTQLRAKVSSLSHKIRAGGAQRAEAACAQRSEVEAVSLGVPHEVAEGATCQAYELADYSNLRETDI
The assay can be described thus: Adrenergic α1D selectivity assay, [3H]-prazosin binding to membranes. The following applies: inhibition of [3H]-prazosin binding, HEK cell membranes, read-out: α1 bind pIC50 (converted). As to the method:
Membranes were prepared from human embryonic kidney 293 ([…]) cells expressing recombinant human α1D receptor. These were diluted in Assay Buffer (50 mM HEPES, 1 mM EDTA, pH 7.4) to provide a final concentration of membranes that gave a clear window between maximum and minimum specific binding.
Assays were performed in U-bottomed 96-well polypropylene plates. 10 μL [^3H]-prazosin (0.3 nM final concentration) and […] of test compound (10× final concentration) were added to each test well. For each assay plate 8 replicates were obtained for [^3H]-prazosin binding in the presence of 10 μL vehicle (10% (v/v) DMSO in Assay Buffer; defining maximum binding) or 10 μL BMY7378 (10 μM final concentration; defining non-specific binding (NSB)). Membranes were then added to achieve a final volume of 100 μL. The plates were incubated for 2 hours at room temperature and then filtered onto PEI coated GF/B filter plates, pre-soaked for 1 hour in Assay Buffer, using a 96-well plate Tomtec cell harvester. Five washes with 250 μL wash buffer (50 mM HEPES, 1 mM EDTA, pH 7.4) were performed at 4° C. to remove unbound radioactivity. The plates were dried then sealed from underneath using Packard plate sealers and MicroScint-O (50 μL) was added to each well. The plates were sealed (TopSeal A) and filter-bound radioactivity was measured with a scintillation counter (TopCount, Packard BioScience) using a 3-minute counting protocol.
Total specific binding (B0) was determined by subtracting the mean NSB from the mean maximum binding. NSB values were also subtracted from values from all other wells. […] Data was fitted to a four parameter logistic equation to determine the compound potency, which was expressed as pIC50 (negative log molar concentration inducing 50% inhibition of [^3H]-prazosin binding).

Where a name gives a salt, the structure may show the parent alone.

T1 sequence (P07550 whole entry): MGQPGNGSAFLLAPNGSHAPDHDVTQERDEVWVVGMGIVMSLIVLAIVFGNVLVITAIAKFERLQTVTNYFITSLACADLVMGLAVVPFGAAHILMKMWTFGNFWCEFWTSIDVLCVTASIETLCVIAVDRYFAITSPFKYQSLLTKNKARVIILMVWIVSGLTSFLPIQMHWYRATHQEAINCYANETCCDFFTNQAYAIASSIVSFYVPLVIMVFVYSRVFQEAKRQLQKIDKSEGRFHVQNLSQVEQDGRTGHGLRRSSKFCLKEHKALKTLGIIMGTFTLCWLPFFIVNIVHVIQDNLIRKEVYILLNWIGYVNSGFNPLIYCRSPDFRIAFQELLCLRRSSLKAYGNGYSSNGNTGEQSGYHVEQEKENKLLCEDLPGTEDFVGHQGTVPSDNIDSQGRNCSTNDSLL

In the case of `O=C(CCNCCc1cccc(F)c1)N(CCNCCc1ccc(O)c2[nH]c(=O)ccc12)C1CCCCCC1` [Example 5, N-Cycloheptyl-3-(3-fluorophenethylamino)-N-(2-(2-(8-hydroxy-2-oxo-1,2-dihydroquinolin-5-yl)ethylamino)ethyl)propanamide bis(trifluoroacetate)], at Adrenergic β2, the “β2 Int Act” value is recorded as 0.82 and the EC50 is 7.94 nM. The IC50 in assay [1] is 501 nM. Moreover, the IC50 in assay [2] was 158 nM.

On to `Cl.O=C(CCOCCc1ccc(F)cc1)N(CCNCCc1ccc(O)c2[nH]c(=O)ccc12)C1CCCCC1` [Example 71, N-Cyclohexyl-3-(4-fluorophenethoxy)-N-(2-(2-(8-hydroxy-2-oxo-1,2-dihydroquinolin-5-yl)ethylamino)ethyl)propanamide hydrochloride], for which, at Adrenergic β2, the “β2 Int Act” value came out at 0.85 and the EC50 was 10 nM. For the same compound, in assay [1], the IC50 was 3980 nM. In addition, in assay [2], the IC50 was 631 nM.

With `O=C1COc2c(CCNCCN(C(=O)CCNCCc3ccccc3Cl)C3CCCCC3)ccc(O)c2N1` [Example 28, 3-(2-Chlorophenethylamino)-N-cyclohexyl-N-(2-(2-(5-hydroxy-3-oxo-3,4-dihydro-2H-benzo[b][1,4]oxazin-8-yl)ethylamino)ethyl)propanamide bis(trifluoroacetate)], on Adrenergic β2, the “β2 Int Act” value worked out at 0.86. At Adrenergic β2, the EC50 is 2.51 nM. Besides, the IC50 in assay [1] is 79.4 nM; in assay [2], 39.8 nM.

Turning to `O=C(CCNCCc1cccc(F)c1)N(CCNCCc1ccc(O)c2[nH]c(=O)ccc12)C1CCCCC1` [Example 19, N-Cyclohexyl-3-(3-fluorophenethylamino)-N-(2-(2-(8-hydroxy-2-oxo-1,2-dihydroquinolin-5-yl)ethylamino)ethyl)propanamide], the “β2 Int Act” value at Adrenergic β2 is 0.87. The EC50 at Adrenergic β2 was 10 nM. Besides, the results for the IC50 in assay [1] and in assay [2] were 1260 nM and 200 nM, respectively.

Turning to `O=C(CCNCCc1ccc(F)cc1)N(CCNCCc1ccc(O)c2[nH]c(=O)ccc12)C1CCCCCC1` [Example 6, N-Cycloheptyl-3-(4-fluorophenethylamino)-N-(2-(2-(8-hydroxy-2-oxo-1,2-dihydroquinolin-5-yl)ethylamino)ethyl)propanamide bis(trifluoroacetate)], at Adrenergic β2, the “β2 Int Act” value was found to be 0.65 and the EC50 was 31.6 nM. Moreover, the IC50 in assay [1] was 251 nM. Further, in assay [2], the IC50 was 50.1 nM.

In the case of `O=C(CCNCCc1ccccc1)N(CCNCCc1ccc(O)c2[nH]c(=O)ccc12)C1CCCCCC1` [Example 7, N-Cycloheptyl-N-(2-(2-(8-hydroxy-2-oxo-1,2-dihydroquinolin-5-yl)ethylamino)ethyl)-3-(phenethylamino)propanamide bis(trifluoroacetate)], on Adrenergic β2, the “β2 Int Act” value is on record as 0.76 and the EC50 was 10 nM. In assay [1], the IC50 is 316 nM. For the same compound, the IC50 in assay [2] was 126 nM.

In the case of `C[C@H](CNCCC(=O)N(CCNCCc1ccc(O)c2[nH]c(=O)ccc12)C1CCCCCC1)c1ccccc1` [Example 9, (S)—N-Cycloheptyl-N-(2-(2-(8-hydroxy-2-oxo-1,2-dihydroquinolin-5-yl)ethylamino)ethyl)-3-(2-phenylpropylamino)propanamide bis(trifluoroacetate)], at Adrenergic β2, the “β2 Int Act” value came out at 0.91 and the EC50 was 39.8 nM.

`O=C(CCNCCc1cccc(-c2ccccc2)c1)N(CCNCCc1ccc(O)c2[nH]c(=O)ccc12)C1CCCCCC1` [Example 12, 3-(2-(Biphenyl-3-yl)ethylamino)-N-cycloheptyl-N-(2-(2-(8-hydroxy-2-oxo-1,2-dihydroquinolin-5-yl)ethylamino)ethyl)propanamide bis(trifluoroacetate)]: on Adrenergic β2, the “β2 Int Act” value is 0.67 and the EC50 is 50.1 nM. In addition, the IC50 in assay [1] was 126 nM. Moreover, the IC50 in assay [2] was 316 nM.

With `O=C(CCOCCc1cc(F)cc(F)c1)N(CCNCCc1ccc(O)c2[nH]c(=O)ccc12)C1CCCCC1` [Example 78, N-Cyclohexyl-3-(3,5-difluorophenethoxy)-N-(2-(2-(8-hydroxy-2-oxo-1,2-dihydroquinolin-5-yl)ethylamino)ethyl)propanamide trifluoroacetate], on Adrenergic β2, the “β2 Int Act” value was 1.01 and the EC50 was 20 nM. The IC50 in assay [2] was 794 nM.

For the compound `CCCCN(CCNCCc1ccc(O)c2[nH]c(=O)ccc12)C(=O)CCOCCc1ccccc1` [Example 1, N-Butyl-N-(2-(2-(8-hydroxy-2-oxo-1,2-dihydroquinolin-5-yl)ethylamino)ethyl)-3-phenethoxypropanamide hydrochloride], at Adrenergic β2, the “β2 Int Act” value is reported as 0.9 and the EC50 is 398 nM.

(Values after patent publication US20100056508A1, “AMINE DERIVATIVES AND THEIR USE IN BETA-2-ADRENORECEPTOR MEDIATED DISEASES” (ASTRAZENECA AB, priority 2006, published 2010).)
